Experiments:
[1] = tested on: mutant FRBs; test: SeAP transcriptional switch assay, panel of FRB mutants at 2095, 2098, 2101; format: cell-based, human; conditions: Phe at 2101
Experimental: All FRB mutants were prepared by the Quikchange mutagenesis method (Stratagene) using protocols provided by the manufacturer. Briefly, PCR reactions containing the parent plasmid pBJ5-FRB-VP16-HA or pBJ5-FRB*-VP16-HA and overlapping oligonucleotides containing the relevant base changes were performed with Pfu polymerase (Stratagene, San Diego, Calif.). PCR reactions were digested with the methylation sensitive restriction endonuclease Dpn1 to eliminate the parent plasmid and the reaction was transformed in XL10-Gold Ultracompetent E. coli (Stratagene).
Electroporation details are available upon request. Cells were immediately aliquoted to 2 or 3×96 well plates with flat bottoms. […] Data was analysed with Softmax Pro (Molecular Devices), Microsoft Excel and Prism 3 (GraphPad Software).

[2] = target: T1, FKBP-GSK3β-GFP (Homo sapiens, UniProt P62942); test: Sub-cellular localization of FKBP-GSK3β-GFP with FRB(TLW)-NES and FRB(KTF)-NLS in COS1 cells; format: cell-based; conditions: 10 nM, 1 hour
T1 construct: expressed in transfected cells; host or cells: COS1 cells
Experimental: COS1 cells were electroporated with 1 μg pS-FKBP-GSK3β-GFP, 1 μg of the ‘exporter’ pBJ5-FRB(TLW)-Exp-HA containing a nuclear export sequence derived from the rev protein of Human Immunodeficiency Virus and 3 μg of the ‘importer’ pBJ5-FRB(KTF)-Imp with a nuclear localization sequence from SV40 Large T antigen. Cells were plated on autoclaved coverslips and incubated 36 hours followed by 1 hour of rapalog treatment (10 nM). Cells were fixed 10 minutes in 4% paraformaldeyde/PBS at 4° C. and mounted for microscopy with DAPI to visualize the nucleus. Microscopy was perfomed with a Leica confocal microscope and Leica software.

T1 sequence (P62942 whole entry): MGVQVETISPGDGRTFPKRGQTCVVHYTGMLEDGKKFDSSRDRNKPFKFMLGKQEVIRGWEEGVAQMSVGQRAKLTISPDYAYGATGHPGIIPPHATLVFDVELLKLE

Question: Which results are given for “C16-(S)Butylsulfonylrapamycin [C16-BSrap, reference compound]”?
Answer: binding to mutant FRBs with Phe substituted at amino acid 2101 [1]: little or no binding; sub-cellular localization of GSK3β [2]: localized to the cytoplasm
